Test results taken from US20240209016A1, “FLUORESCENT NUCLEOSIDE PHOSPHATES” (STEALTH LABELS BIOTECH AB, priority 2021, published 2024).

How the values were obtained:
Huh-7 cells [1] = test: Cellular incorporation into RNA (emission of extracted RNA); assay type: cell-based, human; details: 24 h exposure; for emission of RNA extracted from exposed cells (in-cellulo RNA labelling): excitation 350 nm (2CNqA) or 370 nm (pA)
Experimental: RNA Extraction: Cells were seeded in 12-well plates as described above. Treatment solutions were prepared by diluting compounds 7 and 17 to a concentration of 2.5 μM or 5 μM in CCM. Conditioned medium was removed from the cells and treatment solutions were added. For control cells CCM alone was added. Cells were incubated for 24 h at 37° C. and 5% CO2. For RNA extraction and purification, a QIAGEN RNeasy Mini Kit was used, following the manufacturer's protocol. Briefly, the cells were washed with DPBS, lysed, homogenized by 12 times passing it through a 20-gauge needle (0.9 mm outer diameter), and added to an equal volume of ethanol. The resulting solution was transferred to a RNeasy spin column and centrifuged. Then, binding buffer was added on top of the column, where after it was centrifuged again. The column-bound RNA was washed five times with washing buffer, with a centrifugation step between each addition. To elute the extracted RNA, 30 μL of the provided RNase-free water was applied to the column and centrifuged. This step was repeated twice to increase the yield of extracted RNA.
Three control samples were prepared to examine potential FBA-TP interferences with the extraction procedure, as well as non-covalent binding between the FBA-TP and RNA. 1) FBA-TP was added to the kit's lysate buffer to a concentration of 2.5 μM and treated in the same way starting from the homogenization step. 2) Unexposed cells were seeded and lysed as described above and FBA-TP was thereafter added directly to the lysate to make up a 2.5 μM final concentration. […] The concentration and purity of the RNA extracted from the unexposed cells were determined using a NanoDrop 2000 spectrophotometer (Thermo Scientific) and FBA-TP was added to reach a final concentration of 2.5 μM in the solution. […]
Absorption and Emission Readout of cellular RNA: Absorption spectra of extracted and purified RNA samples and controls were recorded on a Cary 4000 spectrometer (Agilent Technologies) between 200 nm and 600 nm. Emission spectra were measured on a SPEX Fluorolog 3 spectrofluorimeter (Jobin Yvon Horiba). […]

Huh-7 cells [2] = test: Uptake kinetics monitored by flow cytometry; assay type: cell-based, human; details: 2.5 μM; for exposure time at which uptake reaches plateau / saturation: 5 min to 4 h exposure
Experimental: For flow cytometry experiments, cells were seeded in a 48-well plate as described above. For kinetics experiments of the uptake, solutions of 2.5 μM of compounds 7 or 17 in CCM were added. Control samples were CCM, containing an equal volume of DPBS instead of FBA-TP. All treatments were done in triplicate. The experiment was setup such that all samples could be harvested at the same time at the end of the experiment. The FBA-TP solutions where therefore added at different time points. At the end of the experiment, the cells were washed twice with DPBS, and thereafter harvested by addition of 0.25% trypsin-EDTA. The trypsin was neutralized by adding DPBS with 2% added FBS and samples were transferred to a 96 U-bottom well plate for high throughput readout.
Measurements were generally performed on a BD LSRFortessa flow cytometer with an BD High Throughput Sampler (HTS). The system was connected to the software BD FACSDiva. Samples were excited using a 405 nm laser and emission passed through a bandpass filter centred at 450 nm (±20 nm). Uptake kinetics experiments were repeated twice. For monophosphate compounds, a Luminex CellStream flow cytometer with a high throughput sampler (HTS) connected to the CellStream Acquisition software was used. Excitation wavelength was 405 nm, with the emission passing through a 456/51 nm bandpass filter.

Huh-7 cells [3] = test: Cellular uptake and localisation by confocal fluorescence microscopy; assay type: cell-based, human; details: 2.5 μM
From the text: Confocal Laser Scanning Fluorescence Microscopy: Images were captured using a Nikon eclipse Ti microscope with a Nikon C2plus scanner, two parallel Gallium arsenide phosphide (GaAsP) detectors, and an Apo 60x Oil μS DIC N2 objective. To excite the fluorescent nucleoside triphosphates the 405 nm laser line was used, and the emission was collected between 407-607 nm. To optimize the signal while avoiding photobleaching of the compounds a laser power of 2% and a detector gain of 4% was applied. For live cell imaging, Huh-7 cells were seeded in a four-compartment dish (CELLview Dishes, Greiner Bio-One) with glass bottom as described above. During imaging the dish was placed in a stage top incubation chamber (OKO lab) maintaining 37° C. and 5% CO2.
Time-lapse Imaging: To image the uptake of compounds 7 and 17 over time, the time-lapse setup of the NIS software was used. […]
Results: To explore the cellular uptake of compounds 7 and 17, they were added to Huh-7 cells in CCM and the uptake was monitored as function of time using a confocal fluorescence microscope (FIG. 4). Control cells, exposed to CCM alone, were imaged using the same microscopy settings and recorded as reference to probe for cellular autofluorescence levels. […]

[4] = DPBS, room temperature; cited from earlier work

((2R,3S,4R,5R)-5-(2,3,5,6-tetraazacyclopenta[de]tetracen-2(6H)-yl)-3,4-dihydroxytetrahydrofuran-2-yl)methyl hydrogen triphosphate [pATP]
emission of RNA extracted from exposed cells (in-cellulo RNA labelling) (Huh-7 cells [1]): on the same level as the controls | lag phase of uptake (Huh-7 cells [2]): 15 min | increase in cellular fluorescence over time (comparison) (Huh-7 cells [2]; 5 min to 4 h): significantly slower | exposure time at which uptake reaches plateau / saturation (Huh-7 cells [2]): > 4 h | intracellular fluorescence following 20 h exposure (Huh-7 cells [3]): strong intracellular fluorescence | ε260 [4]: 22300^27 M^−1 cm^−1

((2R,3S,4R,5R)-5-(8-cyano-2,3,5,6-tetraazaaceanthrylen-2(6H)-yl)-3,4-dihydroxytetrahydrofuran-2-yl)methyl hydrogen triphosphate [2CNqATP]
emission maximum of RNA extracted from exposed cells (Huh-7 cells [1]; excitation at 350 nm): 460 nm | emission of RNA extracted from exposed cells (in-cellulo RNA labelling) (Huh-7 cells [1]): significant emission peak | exposure time at which fluorescence is significantly over the initial (t=0) level (Huh-7 cells [2]): 5 min | exposure time at which uptake reaches plateau / saturation (Huh-7 cells [2]): 2 h | intracellular fluorescence following 20 h exposure (Huh-7 cells [3]): strong intracellular fluorescence | ε260 [4]: 14600^26 M^−1 cm^−1
